Data reported in US20150258168A1, “MODULATION OF PODOPLANIN MEDIATED PLATELET ACTIVATION” (OKLAHOMA MEDICAL RESEARCH FOUNDATION, priority 2012, published 2015).
Entries after “also recorded” stand apart in the source; their conditions may differ.

Test system: NE-Pdpn^−/− mice
Test: tMCAO-induced ischemia/reperfusion, brain bleeding and Evans blue leakage
Assay type: in vivo
Settings: NE-Pdpn^−/− mice after tMCAO (1.5 hr ischemia and 24 hr reperfusion), 100 mg/kg body weight, i.p., n=2/group, pilot experiment
Experimental: FIG. 12. […] Gross images of cronal sections of NE− Pdpn^−/− brains. The mice (6-wks-old) were treated either with SEW2871 or DMSO (solvent of SEW2871) immediately after reperfusion. 24 hrs after the reperfusion, mice were intravenously injected with Evans blue, sacrificed and immediately perfused with saline and 4% PFA. Arrows show bleeding. Asterisks show leakage of Evans blue. R, right side (tMCAO side).
To determine the role of PDPN in astrocytes in protecting vascular integrity in the adult brain after injury, the inventor has have established a transient middle cerebral artery occlusion (tMCAO)-induced ischemia/reperfusion model that is widely accepted as a model for secondary hemorrhage in human patients with ischemic stroke (Fan et al., 2010). […] In addition, he will include Magnetic Resonance Imaging (MRI) to detect early hemorrhage, monitor its progress, and quantify bleeding volume (every 10 h). […]
The S1P receptor S1P1 is highly expressed on vascular endothelial cells (Kono et al., 2004). […] Cerebral vascular permeability/edema will be detected by intravenous injection of Evans blue and the wet/dry ratio of the brains. Vascular integrity will be analyzed by confocal imaging and/or TEM as described in C1.3.3. […]

SMILES: FC(F)(F)c1cccc(-c2noc(-c3cc(-c4ccccc4)c(C(F)(F)F)s3)n2)c1 [SEW2871]
- vascular leakage (Evans blue): ameliorated
- brain bleeding (100 mg/kg): ameliorated; also recorded: ameliorates brain bleeding
